Reference: patent US20240398754A1, “VERATRALDEHYDE, PIPERONYL ALCOHOL, ETHYL 2-AMINO BENZOATE, ISOAMYL CINNAMATE, OR DIETHYL MALONATE AS FOOD ADDITIVES WITH ANTI-INFLAMMATORY PROPERTIES” (NATIONAL UNIVERSITY OF IRELAND, MAYNOOTH, priority 2021, published 2024)

Experiments:
[1] = tested on: Human THP1 cells; assay: ELISA analysis of IL-10 and TNF expression in media from LPS-stimulated THP1 cells (cytokine release platform); assay type: cell-based; details: FIG. 11A-F, compounds at 1 mM, 100 μM and 10 μM for 2 hrs, vs DMSO vehicle
Experimental: FIG. 10: ELISA analysis of IL-10 and TNF expression in media from cells pretreated with DMSO (vehicle) or (A/B) piperonyl acetate and (C/D) piperonyl isobutyrate for 2 hrs and stimulated with LPS for 24 hrs. Human THP1 cells treated with compounds at (1 mM, 100 μM and 10 μM) and LPS […]. All data are presented as the mean±SEM of three or four independent experiments and were subjected to paired Student's t test.
FIG. 11: ELISA analysis of IL-10 and TNF expression in media from cells pretreated with DMSO (vehicle) or (A/B) vanillin, (C/D) ethyl vanillin and (E/F) divanillin for 2 hrs and stimulated with LPS for 24 hrs. Human THP1 cells treated with compounds at (1 mM, 100 μM and 10 μM) and LPS […]. (G) DH82 cells were treated with veratric acid (1 mM, 500 uM, 250 uM, 125 uM, 60 uM, 30 uM) for 2 hrs and stimulated with LPS for 24 hrs. All data are presented as the mean±SEM of three or four independent experiments and were subjected to paired Student's t test.
THP-1 cells were cultured in RPMI supplemented with 10% (v/v) heat inactivated FBS, penicillin G (100 μg/ml) and streptomycin (100 μg/ml) in a 37° C. humidified chamber under a 5% CO2 atmosphere. Cell morphology and confluence, including media acidification colour change were monitored daily. Twice a week, cells were passaged by removal from flask and centrifugation at 400 G. Cells were cultured for a maximum of 25 passages in order to avoid excessive genetic drift. Cells were seeded at 1×10^6/ml.
Cell supernatant or serum samples were collected and stored at −80° C. prior to analysis. 96-well NUNC “Maxisorb” plates were coated with 100 μl capture antibody diluted to a working concentration in PBS. […] The optical density (OD) value of each well was measured at 450 nm with a correction at 590 nm. A ELx800™ microplate reader with Gen5 Data Analysis Software was used to carry out the reading. The sample concentrations were determined by interpolating the sample absorbance from the known concentrations of the standard curve. Standards were assayed in duplicate while samples were analysed in triplicate. […]

[2] = tested on: COL2A1; assay: In vitro arthritis model: DH82 supernatant transferred to canine chondrocytes, COL2A1 mRNA by RT-PCR; assay type: cell-based; details: FIG. 14(A); DH82 macrophage cells treated with 500 μM for 2 hrs and LPS (100 μg/ml) 3 hours; media transferred to canine chondrocytes (CNC) 24 hours; compared to LPS alone
Experimental: FIG. 13: (1) DH82 cells are plated and stimulated with the compound, followed by LPS. (2) After 24 hours, TNF has been produced by the cells and (3) This liquid supernatant is removed from the cells and reserved. (4) Chondrocytes are plated and (5) the reserved liquid supernatant containing TNF and other inflammatory cytokines from the DH82 cells is added on top of these cells, thus exposing the cartilage cells to an inflammatory environment, simulating an inflammatory joint. (6) After 24 hours gene expression of COL2A1 is measured.
FIG. 14: (A) DH82 cells were stimulated with DMSO (vehicle) or veratraldehyde (500 μM) for 2 hrs and stimulated with LPS (100 μg/ml) for 3 hours. […] COL2A1 mRNA expression was measured by RT-PCR. (B) Quantitative RT-PCR of mRNA expression of COL2A1 in Canine chondrocytes (CNC) pretreated with DMSO (vehicle), Methyl Isoeugenol, NaOH, Vertic Acid, Folic Acid, Piperonyl Alcohol, Veratraldehyde (500 μM) for 24 hrs. […]
Canine chondrocyte (CNC) cells were cultured in complete CNC media in a 37° C. humidified chamber under a 5% CO2 atmosphere. Cell morphology and confluence were monitored daily. […]
Enriched inflammatory cell supernatant from DH82 cells was prepared by first stimulating seeded DH82 cells with compound, followed by stimulation with LPS for 3 hours. […] After 24 hours, mRNA was harvested from CNC as described above and levels of COL2A1 were assessed. […]

[3] = tested on: DH82 cells; assay: ELISA of media from LPS-stimulated DH82 cells; assay type: cell-based, canine; details: FIG. 11G, 1 mM, 500 uM, 250 uM, 125 uM, 60 uM, 30 uM for 2 hrs, then LPS for 24 hrs
Experimental: FIG. 3: ELISA analysis of TNF expression in media from cells pretreated with DMSO (vehicle) or Veratraldehyde for 2 hrs and stimulated with LPS for 24 hrs. (A) human THP1 cells treated with Veratraldehyde (200 μM, 100 μM and 50 μM) and LPS (1 mg/ml). (B) human peripheral blood mononuclear cell (PBMC) treated with Veratraldehyde (100 μM) and LPS (100 μg/ml). (C) murine bone-marrow-derived macrophages (BMDMs) isolated from C57BL/6 WT mice treated with Veratraldehyde (100 μM) and LPS (100 μg/ml). (D) Quantitative RT-PCR of mRNA expression of Tnf in PBMCs pretreated with DMSO (vehicle) or veratraldehyde (100 μM) for 2 hrs and stimulated with LPS (100 μg/ml) for 3 hrs. (E and G) TNF was measured from canine macrophage-like cells (DH82) treated with veratraldehyde (1 mM, 500 uM, 200 uM, 100 uM, 50 uM, 10 uM) and LPS for 24 hours by ELISA. (F) Quantitative RT-PCR of mRNA expression of Tnf in DH82 cells pretreated with DMSO (vehicle) or veratraldehyde (500 μM) for 2 hrs and stimulated with LPS (100 μg/ml) for 1.5 and 3 hrs. […] COL2A1 mRNA expression was measured by RT-PCR. […]
DH82 cells were cultured in EMEM supplemented with 10% (v/v) heat inactivated FBS, penicillin G (100 μg/ml) and streptomycin (100 μg/ml) in a 37° C. humidified chamber under a 5% CO2 atmosphere. Cell morphology and confluence were monitored daily. […]

| Structure (SMILES) | anti-inflammatory effect (ELISA analysis of IL-10 and TNF expression in media) [1] | further results |
| --- | --- | --- |
| COc1cc(C=O)cc(-c2cc(C=O)cc(OC)c2O)c1O [divanillin] | does not show an anti-inflammatory effect | – |
| COc1cc(C=O)ccc1O [vanillin] | does not show an anti-inflammatory effect | – |
| COc1ccc(C=O)cc1OC [veratraldehyde, 3,4-dimethoxybenzaldehyde] | – | levels of COL2A1 (mRNA expression) in chondrocyte cells [2]: significant restoration |
| CCOc1cc(C=O)ccc1O [ethyl vanillin] | does not show an anti-inflammatory effect | – |
| COc1ccc(C(=O)O)cc1OC [veratric acid] | – | anti-inflammatory effect (ELISA) [3]: does not show an anti-inflammatory effect |
